Here are results for one molecule from patent publication US12012406B1, “Pyrido[4,3-e]pyrrolo[1,2-a]pyrimidine as CK2 inhibitors” (KING FAISAL UNIVERSITY, priority 2024, dated 2024).

The test system of assay [1] is PC3 (prostate). In words: In vitro cytotoxic activity MTT assay, PC3. The class given is cell-based. Conditions: Homo sapiens, Prostate cell, cells exposed for 96 hours, read-out: Cytotoxicity activity IC50 (50% inhibition of cell proliferation). As for the experimental part: (§1) Compounds 1-16 were screened for their in vitro cytotoxic activity utilizing a 3-(4,5-dimethyl-thiazol-2-yl)-2,5-diphenyltetrazolium bromide (MTT) assay against selected cancer human cell lines consisting of PC3 (prostate), HCT116 (colon), A375 (melanoma), H1299 (lung), MIAPaCa-2 (pancreas), HL60 (leukemia), MCF7 (breast), MDA-MB-231 (breast) (T. Mosmann, J. Immunol. Meth., 1983, 65, 55-63). The cells were cultured at 37° C. in RMPI1640 medium supplemented with 10% fetal bovine serum, 50 IU/mL penicillin, and 50 μg/mL streptomycin in a 5% CO2 incubator. All cells were sub-cultured 3 times/week by trypsinisation. Viable cells were seeded and allowed to adhere for 12 hours before a test drug was added in 96-well plates at an initial density of 1.0×10^5 cells/mL. Tumor cell lines were separately exposed to various concentrations of the tested compounds followed by incubation at a temperature of 37° C. during 96 hours inside a medium of fresh RMPI 1640. Cells were subsequently incubated at 37° C. using MTT at 0.5 mg/mL during 4 hours. After removal of supernatant, formazan crystals were dissolved in isopropanol and the optical density was measured at 570 nm. CX-4945 was used as a positive control.
For orientation: Tetrazolium dyes change colour on reduction, which living cells bring about.

The test system of assay [2] is H1299 (lung). Put plainly: In vitro cytotoxic activity MTT assay, H1299. Conditions: Homo sapiens, NCI-H1299, cells exposed for 96 hours, read-out: Cytotoxicity activity IC50 (50% inhibition of cell proliferation). The class given is cell-based. As for the experimental part:
as §1

In assay [3] the target is T1, recombinant human CK2 (RRBB-holoenzyme) (Homo sapiens, UniProt P68400).
T1 construct: purchased Millipore
Put plainly: CK2 Kinase Assay (33P-ATP, filter plate). The following applies: recombinant human CK2, final ATP concentration 15 μM, 10 min at 30° C.; read-out: protein kinase CK2 inhibition IC50. It counts as biochemical. As for the experimental part: CK2 Kinase Assay was conducted using the protocol as described in Pierre F. et al; J. Med. Chem. 2011, 54, 635-654. The tested compounds in aqueous solution were added at a volume of 10 μL to a reaction mixture comprising 10 μL of assay dilution buffer (ADB; 20 mM MOPS, pH 7.2, 25 mM B-glycerol phosphate, 5 mM EGTA, 1 mM sodium orthovanadate, and 1 mM dithiothreitol), 10 μL of substrate peptide (RRRDDDSDDD, dissolved in ADB at a concentration of 1 mM), 10 μL of recombinant human CK2 (RRBB-holoenzyme, 25 ng dissolved in ADB; Millipore). Reactions were initiated by the addition of 10 μL of ATP solution (90% 75 mMMgCl2, 75 μM ATP (final ATP concentration: 15 μM) dissolved in ADB; 10% [γ-33P] ATP (stock 1mCi/100 μL; 3000 Ci/mmol (Perkin-Elmer) and maintained for 10 min at 30° C. The reactions were quenched with 100 μL of 0.75% phosphoric acid and then transferred to and filtered through a phosphor cellulose filter plate (Millipore). After washing each well five times with 0.75% phosphoric acid, the plate was dried under vacuum for 5 min and, following the addition of 15 μL of scintillation fluid to each well, the residual radioactivity was measured using a Wallac luminescence counter. The IC50 values were derived from eight concentrations of test inhibitors.

Assay [4] concerns MDA-MB-231 (breast). In words: In vitro cytotoxic activity MTT assay, MDA-MB-231. Conditions: Homo sapiens, cells exposed for 96 hours, read-out: Cytotoxicity activity IC50 (50% inhibition of cell proliferation). The class given is cell-based. As for the experimental part: as §1
Assay [5] relates to HL60 (leukemia). In words: In vitro cytotoxic activity MTT assay, HL60. It counts as cell-based. The following applies: Homo sapiens, HL-60, cells exposed for 96 hours, read-out: Cytotoxicity activity IC50 (50% inhibition of cell proliferation). As for the experimental part: as §1
The test system of assay [6] is MCF7 (breast). In words: In vitro cytotoxic activity MTT assay, MCF7. It counts as cell-based. Conditions: Homo sapiens, cells exposed for 96 hours, read-out: Cytotoxicity activity IC50 (50% inhibition of cell proliferation). As for the experimental part: as §1
Assay [7] relates to HCT116 (colon). In words: In vitro cytotoxic activity MTT assay, HCT116. It counts as cell-based. The following applies: Homo sapiens, HCT-116, cells exposed for 96 hours, read-out: Cytotoxicity activity IC50 (50% inhibition of cell proliferation). On the procedure: as §1
Assay [8] deals with A375 (melanoma). Put plainly: In vitro cytotoxic activity MTT assay, A375. The class given is cell-based. Conditions: Homo sapiens, A-375, cells exposed for 96 hours, read-out: Cytotoxicity activity IC50 (50% inhibition of cell proliferation). On the procedure:
as §1

For assay [9], the system named is MIAPaCa-2 (pancreas). Put plainly: In vitro cytotoxic activity MTT assay, MIAPaCa-2. The class given is cell-based. Conditions: Homo sapiens, MIA PaCa-2, cells exposed for 96 hours, read-out: Cytotoxicity activity IC50 (50% inhibition of cell proliferation). As for the experimental part:
as §1

T1 sequence (P68400 whole entry): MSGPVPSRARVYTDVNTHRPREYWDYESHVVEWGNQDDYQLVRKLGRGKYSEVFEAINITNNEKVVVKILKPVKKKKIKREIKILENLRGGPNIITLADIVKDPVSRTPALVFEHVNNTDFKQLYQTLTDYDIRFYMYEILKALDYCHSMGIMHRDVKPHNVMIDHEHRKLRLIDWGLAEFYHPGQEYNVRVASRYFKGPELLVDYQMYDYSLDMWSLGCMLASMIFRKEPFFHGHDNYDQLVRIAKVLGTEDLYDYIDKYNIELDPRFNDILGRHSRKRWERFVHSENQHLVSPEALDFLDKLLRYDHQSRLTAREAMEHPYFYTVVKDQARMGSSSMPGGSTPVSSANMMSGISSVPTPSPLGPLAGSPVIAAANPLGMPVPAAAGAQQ
T1 sequence (P67870 whole entry partner): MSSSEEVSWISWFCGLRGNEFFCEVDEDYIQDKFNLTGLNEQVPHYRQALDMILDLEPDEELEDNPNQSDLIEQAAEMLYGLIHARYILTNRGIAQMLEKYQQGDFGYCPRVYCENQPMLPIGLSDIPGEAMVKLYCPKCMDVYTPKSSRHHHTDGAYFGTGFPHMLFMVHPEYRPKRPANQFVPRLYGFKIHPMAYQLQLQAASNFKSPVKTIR

For `O=C(O)c1ccn2c1nc(Nc1cccc(Cl)c1)c1ccncc12` [Compound 1, 5-((3-chlorophenyl)amino)pyrido[4,3-e]pyrrolo[1,2-a]pyrimidine-7-carboxylic acid], the IC50 in assay [1] came to 2400 nM; in assay [2], 1900 nM; in assay [3] it was 89 nM; in assay [4] it was 4.2 µM; in assay [5], 3.5 µM; in assay [6], 5.6 µM. Moreover, the values for the IC50 in assay [7], in assay [8] and in assay [9] were 2100 nM, 4.6 µM and 1300 nM, respectively.
